# Measured values published in the supplement of paper PMC10883282.
# ± gives the standard deviation of the averaged measurements.
# Test system: A204
# Test: relative viability vs DMSO control (72 h) (fraction); higher = more viable cells
# Method in brief: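 A 5 µM positive control and 0.1% DMSO vehicle ran alongside sarcoma cell lines seeded in 384-well plates to reach 80–90% confluence. Serially diluted compound, 2.5 µl from source plates of 10 mM to 0.0002 mM, was added after 24 h, and the plates were held 72 h at 37 °C, 5% CO2. Relative viability was worked out from ATPLite readings as percent growth averaged over up to triplicate wells. The values were rescaled so that 1 is full and 0 is none.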
SMILES,relative viability (0.00017 µM),relative viability (0.00051 µM),relative viability (0.00152 µM),relative viability (0.00457 µM),relative viability (0.01372 µM),relative viability (0.04115 µM),relative viability (0.1235 µM),relative viability (0.3704 µM),relative viability (1.111 µM),relative viability (3.333 µM),relative viability (10 µM)
CO[C@H]1C[C@@H]2CC[C@@H](C)[C@@](O)(O2)C(=O)C(=O)N2CCCC[C@H]2C(=O)O[C@H]([C@H](C)C[C@@H]2CC[C@@H](OP(C)(C)=O)[C@H](OC)C2)CC(=O)[C@H](C)/C=C(\C)[C@@H](O)[C@@H](OC)C(=O)[C@H](C)C[C@H](C)/C=C/C=C/C=C/1C [Ridaforolimus],0.996 ± 0.029,0.915 ± 0.019,0.783 ± 0.025,0.677 ± 0.047,0.601 ± 0.07,0.582 ± 0.036,0.576 ± 0.02,0.512 ± 0.042,0.532 ± 0.023,0.513 ± 0.043,0.499 ± 0.0088
Cc1cnc(Nc2ccc(OCCN3CCCC3)cc2)nc1Nc1cccc(S(=O)(=O)NC(C)(C)C)c1 [Fedratinib],1.07 ± 0.066,1.07 ± 0.022,1.13 ± 0.041,1.08 ± 0.035,1.09 ± 0.017,1.02 ± 0.034,0.97 ± 0.035,0.712 ± 0.088,0.396 ± 0.056,0.13 ± 0.016,0.0146 ± 0.0016
Cn1cc(-c2cc3c(N4CCN(c5ncc([C@@](C)(N)c6ccc(F)cc6)cn5)CC4)ncnn3c2)cn1 [Avapritinib],1.02 ± 0.02,1.06 ± 0.024,1.05 ± 0.023,1.05 ± 0.063,1.02 ± 0.056,0.959 ± 0.061,0.77 ± 0.019,0.507 ± 0.013,0.359 ± 0.024,0.282 ± 0.017,0.212 ± 0.012
CN1CCN(c2ccc3nc(-c4c(N)c5c(F)cccc5[nH]c4=O)[nH]c3c2)CC1 [Dovitinib],1.1 ± 0.031,1.06 ± 0.031,1.06 ± 0.064,1.07 ± 0.046,1.01 ± 0.052,1.03 ± 0.056,0.907 ± 0.1,0.771 ± 0.029,0.355 ± 0.054,0.0814 ± 0.011,0.0143 ± 0.0029
